The values that follow come from patent US20260347372A1, “SMALL MOLECULE INHIBITORS OF KRAS G12D MUTANT” (MERCK SHARP & DOHME LLC, priority 2023, published 2026).

One assay has as its target KRAS G12D (Homo sapiens, UniProt P01116, G12D). Briefly: SOS-catalyzed nucleotide exchange assay, KRAS G12D (Procedure A). The format is biochemical. Conditions: guanine nucleotide exchange (GNE). In outline:
(§1)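 Compounds were preincubated 60 min with a biotinylated RAS·Bodipy-GDP/Tb-streptavidin TR-FRET complex, and exchange was started with human SOS plus 3 mM GTP at RT. RAS/SOS: G12C 3 nM/40 nM, WT and G12D 1 nM/40 nM, all 60 min; G13D 1.25 nM/0 nM, 30 min. 520/495 ratio normalized to DMSO and saturating inhibitor, four-parameter fit.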

The target in a further assay is KRAS WT (Homo sapiens, UniProt P01116). The experiment in a line: SOS-catalyzed nucleotide exchange assay, KRAS WT (Procedure A). Type of assay: biochemical. The following applies: GNE. In outline:
as §1

The target in another assay is KRAS G12V (Homo sapiens, UniProt P01116, G12V). The experiment in a line: SOS-catalyzed nucleotide exchange assay, KRAS G12V (Procedure A). Type of assay: biochemical. Conditions: GNE. In outline:
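Biotinylated KRAS G12V was loaded with Bodipy-GDP alongside Terbium-streptavidin to form a TR-FRET complex, which was preincubated with compounds for 60 minutes in 384-well plates. Human SOS protein and unlabeled GTP were then added for 90 minutes, giving final concentrations of 1.25 nM KRAS-G12V, 160 nM SOS and 3 mM GTP. The 520/495 nm emission ratio was read on an Envision.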

The next assay deals with T1, PANC08.13 cells (Homo sapiens, UniProt P01116, G12D).
T1 construct: p-ERK/total ERK AlphaSureFire read-out
T1 sequence (P01116 1-188 isoform P01116-2 G12D): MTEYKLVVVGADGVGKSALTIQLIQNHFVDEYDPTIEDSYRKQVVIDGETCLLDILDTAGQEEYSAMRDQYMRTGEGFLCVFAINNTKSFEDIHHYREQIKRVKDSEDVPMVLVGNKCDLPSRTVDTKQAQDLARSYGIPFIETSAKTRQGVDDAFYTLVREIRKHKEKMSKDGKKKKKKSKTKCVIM
Briefly: Cellular phospho-ERK assay, PANC08.13 cells (KRAS G12D). The format is cell-based. Conditions: 2 hours, read-out: PANCO 813 pERK IC50. On the procedure:
Procedure for Cellular Phospho-ERK Assay in KRAS Wild Type and Mutant (G12D, G12V) Cell Lines
PANC08.13 cells (ATCC® CRL-2551™), containing homozygous KRAS-G12D activating mutation, were cultured in growth medium made of RPMI1640-GlutaMAX™-I (ThermoFisher Scientific 61870) containing 15% heat inactivated fetal bovine serum (ThermoFisher Scientific 10091148)). AsPC-1 cells (ATCC® CRL-1682™), containing homozygous KRAS-G12D activating mutation, were cultured in T150 flask in growth medium (RPMI medium 1640-GlutaMAX™-I (ThermoFisher Scientific 61870) containing 10% fetal bovine serum (ThermoFisher Scientific 10091148)).
Cells for the assay were harvested in growth medium after TrypLE (ThermoFisher scientific 12604021) digestion and were seeded in a 384-well collagen coated cell culture plate (Corning 356702) at a density of 10,000-15,000 cells/20 μL/well, and incubated at 37° C., 5% CO2 overnight. The compound (with 10 mM stock concentration) dose-response titrations were prepared [30 μM final ERK detection assay concentration and 1:3 dilutions, 10-point dose response] and appropriate amounts (270 nL) of test compounds were dispensed in a 384-well intermediate plate using an Echo 550 liquid handler. 30 μL/well of RPMI medium 1640-GlutaMAX™-I was added to the intermediate plate and the contents of the intermediate plate (10 μL/well) were then transferred to the 384-well collagen coated cell culture plate, which was incubated at 37° C., 5% CO2 for 2 hours. After removal of medium from the collagen coated cell culture plate, cells were lysed in lysis buffer from Alpha SureFire® Ultra™ Multiplex p-ERK and total ERK assay kit (PerkinElmer MPSU-PTERK) containing Halt™ Protease and Phosphatase inhibitor cocktail (ThermoFisher Scientific 78446) at room temperature with constant shaking at 300 rpm for 30 minutes. The cell lysates were then transferred to an OptiPlate-384 plate (PerkinElmer 6005620), and the phosphorylation of ERK (p-ERK) and total ERK levels were detected by Alpha SureFire® Ultra™ Multiplex p-EEK kit and total ERK assay kit (PerkinElmer MPSU-PTERK) following the manufacturer's protocol. Assay plates were read on a EnVision Multimode Plate Reader (PerkinElmer), and the ratio of p-ERK vs. total ERK in each well was used as the final readout. Dose response curves were analyzed using a 4-parameter logistic model to calculate IC50 values using Spotfire software.

For the next assay, the target named is KRAS G12C (Homo sapiens, UniProt P01116, C118S/C51S/C80L/G12C). The experiment in a line: SOS-catalyzed nucleotide exchange assay, KRAS G12C (Procedure A). Type of assay: biochemical. The following applies: GNE. In outline:
as §1

The target in the next assay is KRAS G13D (Homo sapiens, UniProt P01116, G13D). Briefly: SOS-catalyzed nucleotide exchange assay, KRAS G13D (Procedure A). Type of assay: biochemical. Conditions: GNE. An outline of the steps:
as §1

A further assay addresses HRAS (Homo sapiens, UniProt P01112). Briefly: SOS-catalyzed nucleotide exchange assay, HRAS (Procedure A). The format is biochemical. The following applies: GNE. In outline:
as §1

A further assay has as its target NRAS (Homo sapiens, UniProt P01111). The experiment in a line: SOS-catalyzed nucleotide exchange assay, NRAS (Procedure A). Type of assay: biochemical. Conditions: GNE. An outline of the steps: as §1
The next assay addresses T2, AsPC-1 cells (Homo sapiens, UniProt P01116, G12D).
T2 construct: p-ERK/total ERK AlphaSureFire read-out
The experiment in a line: Cellular phospho-ERK assay, AsPC-1 cells (KRAS G12D). The format is cell-based. Conditions: 2 hours, read-out: AsPC1 pERK IC50. In outline:
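PANC08.13 or AsPC-1 cells (homozygous KRAS G12D) were seeded overnight, then treated for 2 h at 37 °C with a 10-point 1:3 titration from 30 μM. Lysates were assayed by AlphaLISA SureFire for p-ERK and total ERK. IC50 came from a 4-parameter fit of the p-ERK/total ERK ratio.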

One may read the IC50 as the point on the concentration scale where inhibition reaches its midpoint.

HRAS, sequence (P01112 with tags, fused parts or gaps): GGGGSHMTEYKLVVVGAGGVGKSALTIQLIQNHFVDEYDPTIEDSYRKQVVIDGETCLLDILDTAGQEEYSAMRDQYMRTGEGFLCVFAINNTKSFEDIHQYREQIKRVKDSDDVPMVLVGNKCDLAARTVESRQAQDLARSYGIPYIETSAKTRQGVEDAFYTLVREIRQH
KRAS G12D, sequence (P01116 with tags, fused parts or gaps isoform P01116-2 G12D): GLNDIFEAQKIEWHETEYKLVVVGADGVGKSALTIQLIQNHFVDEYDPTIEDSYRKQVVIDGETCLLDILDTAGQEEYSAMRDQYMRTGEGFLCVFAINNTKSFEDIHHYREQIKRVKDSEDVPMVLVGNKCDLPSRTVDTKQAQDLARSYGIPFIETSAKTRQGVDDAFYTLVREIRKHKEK
KRAS G12C, sequence (P01116 with tags, fused parts or gaps isoform P01116-2 G12C/C51S/C80L/C118S): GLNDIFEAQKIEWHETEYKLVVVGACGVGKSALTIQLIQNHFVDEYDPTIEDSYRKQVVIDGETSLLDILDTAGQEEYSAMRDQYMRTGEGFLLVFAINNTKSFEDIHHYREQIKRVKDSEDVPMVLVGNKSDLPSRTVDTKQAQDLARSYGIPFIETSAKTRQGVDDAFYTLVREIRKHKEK
NRAS, sequence (P01111 with tags, fused parts or gaps): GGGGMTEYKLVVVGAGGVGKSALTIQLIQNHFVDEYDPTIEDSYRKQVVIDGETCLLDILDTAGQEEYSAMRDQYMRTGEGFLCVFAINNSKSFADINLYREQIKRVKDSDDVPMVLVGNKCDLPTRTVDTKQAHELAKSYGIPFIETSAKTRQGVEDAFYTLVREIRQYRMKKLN
KRAS G12V, sequence (P01116 with tags, fused parts or gaps isoform P01116-2 G12V): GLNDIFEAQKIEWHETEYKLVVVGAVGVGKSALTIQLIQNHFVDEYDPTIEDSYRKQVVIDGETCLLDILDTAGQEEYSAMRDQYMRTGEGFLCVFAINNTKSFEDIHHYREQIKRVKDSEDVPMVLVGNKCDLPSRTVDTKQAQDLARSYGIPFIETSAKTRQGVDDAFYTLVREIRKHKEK
KRAS G13D, sequence (P01116 with tags, fused parts or gaps isoform P01116-2 G13D): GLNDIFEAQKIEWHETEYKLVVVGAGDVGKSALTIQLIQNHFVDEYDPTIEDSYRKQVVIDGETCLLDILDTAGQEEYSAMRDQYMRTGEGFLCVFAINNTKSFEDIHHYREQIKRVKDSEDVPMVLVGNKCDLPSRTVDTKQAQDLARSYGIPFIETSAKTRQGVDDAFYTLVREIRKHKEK
KRAS WT, sequence (P01116 with tags, fused parts or gaps isoform P01116-2): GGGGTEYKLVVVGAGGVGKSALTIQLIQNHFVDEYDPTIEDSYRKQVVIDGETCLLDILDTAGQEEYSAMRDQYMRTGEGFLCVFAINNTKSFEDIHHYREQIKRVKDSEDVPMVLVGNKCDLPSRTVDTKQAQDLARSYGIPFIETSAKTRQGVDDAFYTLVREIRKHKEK
T2 sequence (P01116 1-188 isoform P01116-2 G12D): as the sequence (P01116 1-188 isoform P01116-2 G12D) above

`N#Cc1c(N)sc2c(F)cc(F)c(-c3nccc4c3sc3nc(OC[C@]5(CO)CC5(F)F)nc(N5C[C@H]6CC[C@@H](C5)N6)c34)c12` [Ex-61, 4-(4-((1R,5S)-3,8-diazabicyclo[3.2.1]octan-3-yl)-2-(((R)-2,2-difluoro-1-(hydroxymethyl)cyclopro-pyl)methoxy)pyrido[4′,3′: 4,5]thieno[2,3-d]pyrimidin-8-yl)-2-amino-5,7-difluorobenzo[b]thiophene-3-carbonitrile]: the IC50 was 0.859 µM on KRAS G12D, over 11.1 µM at KRAS WT, over 11.1 µM at KRAS G12V and 7.35 µM at PANC08.13 cells.

Consider `Cc1cc2[nH]ncc2c(-c2nccc3c2sc2nc(OC[C@]4(CO)CC4(F)F)nc(N4C[C@H]5CC[C@@H](C4)N5)c23)c1OC(F)F` [Ex-51, ((1R)-1-(((4-((1R,5S)-3,8-diazabicyclo[3.2.1]octan-3-yl)-8-(5-(difluoromethoxy)-6-methyl-1H-indazol-4-yl)pyrido[4′,3′:4,5]thieno[2,3-d]pyrimidin-2-yl)oxy)methyl)-2,2-difluorocyclopropyl)methanol], for which the concentration for half-maximal inhibition (IC50) against KRAS G12D is 2.15 µM; against KRAS WT, over 11.1 µM; at KRAS G12V it was over 11.1 µM; at PANC08.13 cells, 6.81 µM.

Turning to `Cc1cc2[nH]ncc2c(-c2nccc3c2sc2nc(OCC4(CO)CCC4)nc(N4C[C@H]5CC[C@@H](C4)N5)c23)c1C(F)F` [Ex-64, (1-(((4-((1R,5S)-3,8-diazabicyclo[3.2.1]octan-3-yl)-8-(5-(difluoromethyl)-6-methyl-1H-indazol-4-yl)pyrido[4′,3′:4,5]thieno[2,3-d]pyrimidin-2-yl)oxy)methyl)cyclobutyl)methanol], the concentration for half-maximal inhibition (IC50) at KRAS G12D is 9.42 µM; on KRAS WT, over 11.1 µM; on KRAS G12V, over 11.1 µM; at PANC08.13 cells it was over 10 µM.

Regarding `CCn1c2nc(OC[C@@]34CCCN3C[C@H](F)C4)nc(N3C[C@H]4CC[C@@H](C3)N4)c2c2ccnc(-c3c(C(F)(F)F)c(C)cc4[nH]ncc34)c21` [Ex-11, 4-((1R,5S)-3,8-diazabicyclo[3.2.1]octan-3-yl)-9-ethyl-2-(((2R,7aS)-2-fluorotetrahydro-1H-pyrrolizin-7a(5H)-yl)methoxy)-8-(6-methyl-5-(trifluoromethyl)-1H-indazol-4-yl)-9H-pyrido[4′,3′:4,5]pyrrolo[2,3-d]pyrimidine], the concentration for half-maximal inhibition (IC50) is 0.698 µM at KRAS G12D, over 11.1 µM on KRAS WT, over 11.1 µM against KRAS G12V and 2.48 µM at PANC08.13 cells.

In the case of `Cc1cc2[nH]ncc2c(-c2nccc3c2sc2nc(OC[C@]4(CO)CC4(F)F)nc(N4C[C@H]5CC[C@@H](C4)N5)c23)c1OC(F)(F)Cl` [Ex-52, ((1R)-1-(((4-((1R,5S)-3,8-diazabicyclo[3.2.1]octan-3-yl)-8-(5-(chlorodifluoromethoxy)-6-methyl-1H-indazol-4-yl)pyrido[4′,3′:4,5]thieno[2,3-d]pyrimidin-2-yl)oxy)methyl)-2,2-difluorocyclopro-pyl)methanol], the concentration for half-maximal inhibition (IC50) is 0.724 µM against KRAS G12D, over 11.1 µM against KRAS WT, over 11.1 µM against KRAS G12V and 2.77 µM at PANC08.13 cells.

As to `N#Cc1c(N)sc2c(F)ccc(-c3nccc4c3sc3nc(OC[C@]5(CO)CC5(F)F)nc(N5CC6CCC(C5)N6)c34)c12` [Ex-60, 4-(4-(3,8-diazabicyclo[3.2.1]octan-3-yl)-2-(((R)-2,2-difluoro-1-(hydroxymethyl)cyclopropyl)methoxy)pyrido[4′,3′:4,5]thieno[2,3-d]pyrimidin-8-yl)-2-amino-7-fluorobenzo[b]thiophene-3-carbonitrile], the IC50 at KRAS G12D is 2.69 µM; against KRAS WT, over 11.1 µM; against KRAS G12V it was over 11.1 µM; on PANC08.13 cells it was 10 µM.

In the case of `Cc1cc2[nH]ncc2c(-c2nccc3c2sc2nc(OC[C@@]45CCCN4C[C@H](F)C5)nc(NCC4(N(C)C)CCC4)c23)c1C(F)(F)F` [Ex-74, N-((1-(dimethylamino)cyclobutyl)methyl)-2-(((2R,7aS)-2-fluorotetrahydro-1H-pyrrolizin-7a(5H)-yl)methoxy)-8-(6-methyl-5-(trifluoromethyl)-1H-indazol-4-yl)pyrido[4′,3′:4,5]thieno[2,3-d]pyrimidin-4-amine], the 50% inhibitory concentration (IC50) against KRAS G12D is 1.3 µM; against KRAS WT, over 11.1 µM; against KRAS G12C, over 11.1 µM; against KRAS G12V, over 11.1 µM; on KRAS G13D, 2.88 µM; at HRAS, over 11.1 µM. Further, the concentration for half-maximal inhibition (IC50) at NRAS is over 11.1 µM; on AsPC-1 cells it was 12.1 µM.

In the case of `Cc1cc2[nH]nc(C#N)c2c(-c2nccc3c2sc2nc(OC[C@@]45CCCN4C[C@H](F)C5)nc(N4C[C@H]5CC[C@@H](C4)N5)c23)c1C(F)F` [Ex-18, 4-(4-((1R,5S)-3,8-diazabicyclo[3.2.1]octan-3-yl)-2-(((2R,7aS)-2-fluorotetrahydro-1H-pyrrolizin-7a(5H)-yl)methoxy)pyrido[4′,3′:4,5]thieno[2,3-d]pyrimidin-8-yl)-5-(difluoromethyl)-6-methyl-1H-indazole-3-carbonitrile], the IC50 was 0.123 µM against KRAS G12D, over 11.1 µM at KRAS WT, over 11.1 µM at KRAS G12V and 0.666 µM at PANC08.13 cells.

Take `C#Cc1csc2cc3[nH]ncc3c(-c3nccc4c3sc3nc(OC[C@@]56CCCN5C[C@H](F)C6)nc(N5C[C@H]6CC[C@@H](C5)N6)c34)c12` [Ex-54, 4-((1R,5S)-3,8-diazabicyclo[3.2.1]octan-3-yl)-8-(5-ethynyl-1H-thieno[3,2-f]indazol-4-yl)-2-(((2R,7aS)-2-fluorotetrahydro-1H-pyrrolizin-7a(5H)-yl)methoxy)pyrido[4′,3′:4,5]thieno[2,3-d]pyrimidine]: the IC50 on KRAS G12D is 0.00192 µM; against KRAS WT, 0.0807 µM; against KRAS G12C it was 0.0227 µM; against KRAS G12V it was 0.0627 µM; at KRAS G13D, 0.0148 µM; against HRAS it was over 11.1 µM. Besides, the half-inhibitory concentration (IC50) against NRAS was over 11.1 µM; at AsPC-1 cells it was 0.0314 µM.

For `Fc1ccc2cc3[nH]ncc3c(-c3nccc4c3sc3nc(OC[C@@]56CCCN5C[C@H](F)C6)nc(N5C[C@H]6CC[C@@H](C5)N6)c34)c2c1Cl` [Ex-59, 4-((1R,5S)-3,8-diazabicyclo[3.2.1]octan-3-yl)-8-(5-chloro-6-fluoro-1H-benzo[f]indazol-4-yl)-2-(((2R,7aS)-2-fluorotetrahydro-1H-pyrrolizin-7a(5H)-yl)methoxy)pyrido[4′,3′:4,5]thi-eno[2,3-d]pyrimidine], the concentration for half-maximal inhibition (IC50) is 0.00925 µM on KRAS G12D; 1.65 µM at KRAS WT; 0.182 µM on KRAS G12C; 1.37 µM against KRAS G12V; 0.265 µM at KRAS G13D; over 11.1 µM against HRAS. In addition, the figures for the concentration for half-maximal inhibition (IC50) against NRAS and at AsPC-1 cells were over 11.1 µM and 0.217 µM, respectively.
